Paper PMC2785468, “Androgen Receptor Mutations Associated with Androgen Insensitivity Syndrome: A High Content Analysis Approach Leading to Personalized Medicine” (PLoS ONE, 2009)

Target: T1, AR-P766S (Homo sapiens, UniProt P10275, P767S)
T1 construct: expressed in transfected cells
T1 sequence (P10275 1-920 P767S): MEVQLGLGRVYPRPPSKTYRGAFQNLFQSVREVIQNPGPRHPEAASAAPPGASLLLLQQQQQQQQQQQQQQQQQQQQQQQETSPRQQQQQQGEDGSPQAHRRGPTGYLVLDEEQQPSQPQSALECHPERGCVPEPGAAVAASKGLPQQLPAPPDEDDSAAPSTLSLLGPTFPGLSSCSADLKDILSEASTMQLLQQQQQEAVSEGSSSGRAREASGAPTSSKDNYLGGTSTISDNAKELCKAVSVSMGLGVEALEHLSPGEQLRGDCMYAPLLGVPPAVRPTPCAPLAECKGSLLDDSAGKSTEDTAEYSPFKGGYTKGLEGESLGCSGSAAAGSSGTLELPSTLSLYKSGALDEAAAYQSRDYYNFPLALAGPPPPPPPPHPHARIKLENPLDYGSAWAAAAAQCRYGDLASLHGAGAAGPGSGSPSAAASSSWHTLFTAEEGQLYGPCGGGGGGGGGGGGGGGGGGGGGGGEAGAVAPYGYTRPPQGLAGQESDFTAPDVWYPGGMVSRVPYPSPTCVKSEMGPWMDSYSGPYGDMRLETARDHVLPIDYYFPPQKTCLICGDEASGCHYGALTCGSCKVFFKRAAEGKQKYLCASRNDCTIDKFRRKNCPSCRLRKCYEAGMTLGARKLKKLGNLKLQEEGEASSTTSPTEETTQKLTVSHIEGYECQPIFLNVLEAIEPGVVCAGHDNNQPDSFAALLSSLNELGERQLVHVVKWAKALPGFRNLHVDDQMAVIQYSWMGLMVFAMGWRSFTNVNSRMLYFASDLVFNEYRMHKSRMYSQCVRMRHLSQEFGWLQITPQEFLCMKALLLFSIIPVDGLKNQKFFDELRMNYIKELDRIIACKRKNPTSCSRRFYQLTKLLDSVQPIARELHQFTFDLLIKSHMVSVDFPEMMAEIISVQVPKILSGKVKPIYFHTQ
Format: cell-based
Details: HeLa P766S
Method: To determine the global effect of the various AIS mutations on AR signaling, each was analyzed using HCA. This technology allows simultaneous quantification of AR protein expression, nuclear translocation, subnuclear patterning, and transcriptional activity. The analysis was done in HeLa cell lines stably transfected with wild type or mutant ARs fused with green fluorescent protein, or using AR immunofluorescence in primary cultures of genital skin fibroblasts generated from foreskin biopsies of historical AIS patients, or of normal neonates undergoing circumcision at birth. To prevent the effects of receptor over-expression, stable HeLa cells were carefully selected to express AR levels similar to LNCaP as previously described. Prior to ligand treatment, HeLa cells were transfected with the pARR2PB-dsRED2skl reporter plasmid, consisting of the AR responsive promoter ARR2PB [31] driving expression of the red fluorescent protein reporter dsRED2skl engineered to target peroxisomes.
For studies utilizing HeLa GFP-AR cell lines, twenty-four hours before transfection with pARR2PB-dsRED2skl, cells were plated onto 100 mm plastic dishes in medium supplemented with 5% charcoal-stripped and dialyzed-FBS. Transient introduction of the pARR-2PB-dsRED2skl reporter construct was performed using 6.0 µg reporter plasmid and 6.0 µg carrier DNA (BlueScript, Stratagene, San Diego, CA) using Transfectin (Biorad) following standard protocols. After 8-hour incubation, DNA/lipid complexes were removed. Cells were then trypsinized and replated at 10,000 cells per well in Nunc poly-D-lysine treated 96-well optical glass bottom plates and incubated an additional 12 hours to allow for cell adhesion. […] Compound dilutions and final addition to multi-well plates were performed using a Beckman Biomek NX robotic platform to ensure repeatability from experiment to experiment. After incubation was complete, using the Biomek NX robot, plates were washed with PBS and fixed for 20 min at RT in 4% formaldehyde prepared in CSK buffer (80 mM potassium PIPES, pH 6.8, 5 mM EGTA, 2 mM MgCl2). After fixation, cells were briefly permeabilized (5 min) with 0.5% Triton-X and prepared for imaging by washing in PBS, aspirating the washed solution, and adding a 1 ng/ml DAPI solution to stain DNA and a generic protein stain (CellMask, Invitrogen) to facilitate cell and nuclear image segmentation. Cells were imaged in PBS.
Cells were imaged using the Cell Lab IC-100 Image Cytometer (IC-100; Beckman Coulter) platform that consists of 1) Nikon Eclipse TE2000-U Inverted Microscope (Nikon; Melville, NY); 2) Chroma 82000 triple band filter set (Chroma; Brattleboro, VT); 3) an imaging camera: Hamamatsu ORCA-ER Digital CCD camera (Hamamatsu; Bridgewater, NJ); and 4) a focusing camera: Photonics COHU Progressive scan camera (Photonics; Oxford, MA). […] In general, 49 to 64 images were captured per well for image analysis.
While our initial AR studies using HTM were based upon CytoShop (Beckman-Coulter), [15], [33], these approaches were refined in the current work with the more robust server-client Pipeline Pilot image analysis platform (Basic and Advanced Imagine Collections, Pipeline Pilot 7.5, Accelrys, San Diego). Initially, the background signal was removed from all images using plate- and channel-specific correction images, generated by the sum projection of >600 randomly selected images for each channel from the image set. This allows for a pixel-by-pixel background subtraction that compensates any consistent uneven background artifacts in the image set. Furthermore, users are able to customize the degree of background subtraction by applying a multiplier to each correction image, useful for identification of objects such as nuclei or cell borders. After background subtraction, nuclear masks were generated using a combination of non-linear least squares and watershed-from-markers image manipulations of the DAPI images (Fig. 1B).

Structure (SMILES): C[C@@H]1CC2=CC(=O)CC[C@@H]2[C@H]2CC[C@@]3(C)[C@@H](CC[C@]3(C)O)[C@@H]21 [Mb, Mibolerone]
- Nuclear Translocation, Max (% signal present in the nucleus): 78.9±1.5%
- Hyperspeckling, Max (absolute numerical measurement): 785±30
- Transcriptional Activity, Max (pARR2PB-dsRED2skl reporter, absolute numerical measurement): 98±2.2
